According to ChEMBL document CHEMBL5214990, “Novel Aryl Alkamidazole Derivatives as Multifunctional Antifungal Inhibitors: Design, Synthesis, and Biological Evaluation” (J Med Chem, 2022):
Values after ≈ are worked out from the molar mass of the structure shown. Active and inactive are the calls of the source. No cut-off for these calls is given here.

Tests used:
Candida albicans [1] = assay: Antifungal activity against Candida albicans infected in mouse assessed as reduction in total amount of fungal cells in infection region at 20 mg/kg, ip administered on days 2,4,6,8,10,12 and measured on day 14 by hematoxyin-eosin staining based analysis; type: functional, organism-based; conditions: time 13.0 day
Mus musculus [2] = assay: Anti-inflammatory activity in mouse infected with Candida albicans assessed as reduction in COX-2 expression in infection tissues at 20 mg/kg, ip administered on days 2,4,6,8,10,12 and measured on day 14 by western blot analysis; type: functional, organism-based; conditions: time 13.0 day
Candida albicans [3] = assay: Antifungal activity against Candida albicans infected in mouse assessed as reduction in fungal proliferation in the infection region at 20 mg/kg, ip administered on days 2,4,6,8,10,12 and measured on day 14 by hematoxylin-eosin staining based analysis; type: functional, organism-based; conditions: time 13.0 day
Candida albicans [4] = assay: Induction of mitochondrial membrane depolarization in Candida albicans assessed as fungal cells with intact mitochondria measured after 24 hrs by JC-1 staining based flow cytometry (reference value: 95.9%); type: functional
Candida albicans [5] = assay: Antifungal activity against Candida albicans infected in mouse assessed as reduction in fungal proliferation in the infection region at 20 mg/kg, ip administered on days 2,4,6,8,10,12 and measured on day 14 by GMS staining based analysis; type: functional, organism-based; conditions: time 13.0 day
Candida albicans [6] = assay: Antifungal activity against Candida albicans infected in mouse assessed as disappearance of nuclear aggregation in the infection region at 20 mg/kg, ip administered on days 2,4,6,8,10,12 and measured on day 14 by GMS staining based analysis; type: functional, organism-based; conditions: time 13.0 day
Candida albicans [7] = assay: Antifungal activity against fluconazole-resistant Candida albicans 901 assessed as inhibition of fungal growth measured after 72 hrs by CLSI based liquid medium dilution method; type: functional
[8] = target: T1, Lanosterol 14-alpha demethylase (Candida albicans (strain SC5314 / ATCC MYA-2876) (Yeast), UniProt P10613); assay: Inhibition of CYP51 in Candida albicans ATCC SC5314 assessed as eburicol content at 4 ug/ml measured after 48 hrs by GC-MS analysis (reference value: 1.84%); set-up: scale not given: the % may be the effect or the level left; conditions: at 4 µg/mL
T1 sequence (P10613 whole entry): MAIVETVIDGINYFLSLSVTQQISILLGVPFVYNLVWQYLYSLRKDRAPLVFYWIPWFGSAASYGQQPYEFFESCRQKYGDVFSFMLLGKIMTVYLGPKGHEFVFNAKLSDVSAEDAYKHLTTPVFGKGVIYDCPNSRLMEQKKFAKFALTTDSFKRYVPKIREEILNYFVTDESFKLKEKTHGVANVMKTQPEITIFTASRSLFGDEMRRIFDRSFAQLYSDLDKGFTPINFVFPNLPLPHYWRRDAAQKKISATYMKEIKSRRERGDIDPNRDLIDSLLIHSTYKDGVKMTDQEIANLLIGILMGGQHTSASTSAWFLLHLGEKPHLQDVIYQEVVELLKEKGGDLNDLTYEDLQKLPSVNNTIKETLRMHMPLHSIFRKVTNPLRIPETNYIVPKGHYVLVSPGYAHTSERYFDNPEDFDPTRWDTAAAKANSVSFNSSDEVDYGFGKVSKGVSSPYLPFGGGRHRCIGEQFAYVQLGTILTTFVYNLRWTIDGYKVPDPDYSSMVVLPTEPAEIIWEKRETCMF

Candida albicans [9] = assay: Antifungal activity against fluconazole-resistant Candida albicans 904 assessed as inhibition of fungal growth measured after 72 hrs by CLSI based liquid medium dilution method; type: functional
Candida albicans [10] = assay: Antifungal activity against Candida albicans infected in mouse assessed as reduction in fungal endogenous infection symptoms at 20 mg/kg, ip administered on days 2,4,6,8,10,12 and measured on day 14 by hematoxylin-eosin staining based analysis; type: functional, organism-based; conditions: time 13.0 day
[11] = Renal toxicity in mouse infected with Candida albicans assessed as blood urea nitrogen level at 20 mg/kg, ip administered on days 2,4,6,8,10,12 and measured on day 14 (reference value: 16.2 +/-1.6 mmol/L); type: organism-based; conditions: in vivo, 312 h, time 13 day
Candida albicans [12] = assay: Antifungal activity against Candida albicans infected in mouse assessed as disappearance of nuclear aggregation in the infection region at 20 mg/kg, ip administered on days 2,4,6,8,10,12 and measured on day 14 by hematoxyin-eosin staining based analysis; type: functional, organism-based; conditions: time 13.0 day
Candida albicans [13] = assay: Antifungal activity against Candida albicans ATCC SC5314 assessed as inhibition of fungal growth measured after 72 hrs by CLSI based liquid medium dilution method; type: functional
Mus musculus [14] = assay: Anti-inflammatory activity in mouse infected with Candida albicans assessed as reduction in NF-kappaB p65 expression in spleen at 20 mg/kg, ip administered on days 2,4,6,8,10,12 and measured on day 14 by immunohistochemical analysis; type: functional, organism-based; conditions: time 13.0 day
Candida albicans [15] = assay: Antifungal activity against Candida albicans infected in mouse assessed as increase in animal's body weight at 20 mg/kg, ip administered on days 2,4,6,8,10,12 and measured on day 14; type: functional, organism-based; conditions: time 13.0 day
Candida tropicalis = assay: Antifungal activity against Candida tropicalis ATCC 1369 assessed as inhibition of fungal growth measured after 72 hrs by CLSI based liquid medium dilution method; type: functional
Mus musculus [16] = assay: Anti-inflammatory activity in mouse infected with Candida albicans assessed as reduction in PD-L1 expression in spleen at 20 mg/kg, ip administered on days 2,4,6,8,10,12 and measured on day 14 by immunohistochemical analysis; type: functional, organism-based; conditions: time 13.0 day
Pichia kudriavzevii = assay: Antifungal activity against Candida krusei ATCC 6258 assessed as inhibition of fungal growth measured after 72 hrs by CLSI based liquid medium dilution method; type: functional
[17] = target: T1, Lanosterol 14-alpha demethylase; assay: Inhibition of CYP51 in Candida albicans ATCC SC5314 assessed as reduction in substrate consumption using lanosterol as substrate preincubated for 30 mins followed by substrate addition and measured after 60 mins by HPLC analysis
Mus musculus [18] = assay: Anti-inflammatory activity in mouse infected with Candida albicans assessed as reduction in PD-L1 expression in infection tissue at 20 mg/kg, ip administered on days 2,4,6,8,10,12 and measured on day 14 by western blot analysis; type: functional, organism-based; conditions: time 13.0 day
Candida albicans [19] = assay: Antifungal activity against fluconazole-resistant Candida albicans 17# assessed as inhibition of fungal growth measured after 72 hrs by CLSI based liquid medium dilution method; type: functional
Mus musculus [20] = assay: Anti-inflammatory activity in mouse infected with Candida albicans assessed as reduction in NF-kappaB p65 expression in infection tissues at 20 mg/kg, ip administered on days 2,4,6,8,10,12 and measured on day 14 by western blot analysis; type: functional, organism-based; conditions: time 13.0 day
Candida albicans [21] = assay: Antifungal activity against Candida albicans infected in mouse assessed as reduction in fungal endogenous infection symptoms at 20 mg/kg, ip administered on days 2,4,6,8,10,12 and measured on day 14 by GMS staining based analysis; type: functional, organism-based; conditions: time 13.0 day
Candida albicans [22] = assay: Induction of mitochondrial membrane depolarization in Candida albicans assessed as fungal cells with depolarized mitochondria measured after 24 hrs by JC-1 staining based flow cytometry (reference value: 3.22%); type: functional
Candida albicans [23] = assay: Induction of apoptosis in Candida albicans assessed as late apoptotic cells measured after 24 hrs by Annexin V-FITC/PI staining based flow cytometry (reference value: 0.44%); type: functional
Aspergillus fumigatus = assay: Antifungal activity against Aspergillus fumigatus KM8001 assessed as inhibition of fungal growth measured after 72 hrs by CLSI based liquid medium dilution method; type: functional
Candida albicans [24] = assay: Induction of apoptosis in Candida albicans assessed as viable cells measured after 24 hrs by Annexin V-FITC/PI staining based flow cytometry (reference value: 95.7%); type: functional
Cryptococcus neoformans = assay: Antifungal activity against Cryptococcus neoformans assessed as inhibition of fungal growth measured after 72 hrs by CLSI based liquid medium dilution method; type: functional
Candida albicans [25] = assay: Induction of apoptosis in Candida albicans assessed as necrotic cells measured after 24 hrs by Annexin V-FITC/PI staining based flow cytometry (reference value: 3.37%); type: functional
Candida albicans [26] = assay: Antifungal activity against Candida albicans infected in mouse assessed as reduction in necrotic cell fragments in intercellular spaces of the infection region at 20 mg/kg, ip administered on days 2,4,6,8,10,12 and measured on day 14 by hematoxyin-eosin staining based analysis; type: functional, organism-based; conditions: time 13.0 day
Mus musculus [27] = assay: Anti-inflammatory activity in mouse infected with Candida albicans assessed as reduction in COX-2 expression in spleen at 20 mg/kg, ip administered on days 2,4,6,8,10,12 and measured on day 14 by immunohistochemical analysis; type: functional, organism-based; conditions: time 13.0 day

Structure (SMILES): OC(Cn1cncn1)(Cn1cncn1)c1ccc(F)cc1F [FLUCONAZOLE]
- Activity (Candida albicans [1]): Active
- Activity (Mus musculus [2]): Active
- Activity (Candida albicans [3]): Active
- Activity (Candida albicans [4]): 60.8%
- Activity (Candida albicans [5]): Active
- Activity (Candida albicans [6]): Active
- MIC50 (Candida albicans [7]): > 8 µg/mL
- Activity [8]: 40.17%
- MIC50 (Candida albicans [9]): > 8 µg/mL
- Activity (Candida albicans [10]): Active
- Activity [11]: 24.4 mmol/L
- Activity (Candida albicans [12]): Active
- MIC50 (Candida albicans [13]): 0.5 µg/mL (≈ 1.63 µM)
- Activity (Mus musculus [14]): Active
- Activity (Candida albicans [15]): Active
- MIC50 (Candida tropicalis): 0.5 µg/mL (≈ 1.63 µM)
- Activity (Mus musculus [16]): Active
- MIC50 (Pichia kudriavzevii): 1 µg/mL (≈ 3.27 µM)
- IC50 [17]: 110 nM
- Activity (Mus musculus [18]): Active
- MIC50 (Candida albicans [19]): > 8 µg/mL
- Activity (Mus musculus [20]): Active
- Activity (Candida albicans [21]): Active
- Activity (Candida albicans [22]): 19.1%
- Activity (Candida albicans [23]): 5.96%
- MIC50 (Aspergillus fumigatus): > 8 µg/mL
- Activity (Candida albicans [24]): 68.7%
- MIC50 (Cryptococcus neoformans): 0.5 µg/mL (≈ 1.63 µM)
- Activity (Candida albicans [25]): 13%
- Activity (Candida albicans [26]): Active
- Activity (Mus musculus [27]): Active

Structure (SMILES): C[C@H](C(=O)N(C)CC(O)(Cn1ccnc1)c1ccc(Cl)cc1)c1ccc(-c2ccccc2)c(F)c1 (stereo partly drawn)
- Activity (Candida albicans [1]): Active
- Activity (Mus musculus [2]): Active
- Activity (Candida albicans [3]): Active
- Activity (Candida albicans [4]): 32.6%
- Activity (Candida albicans [5]): Active
- Activity (Candida albicans [6]): Active
- MIC50 (Candida albicans [7]): 0.5 µg/mL (≈ 1.02 µM)
- Activity [8]: 43.28%
- MIC50 (Candida albicans [9]): 2 µg/mL (≈ 4.07 µM)
- Activity (Candida albicans [10]): Active
- Activity [11]: 20.5 mmol/L
- Activity (Candida albicans [12]): Active
- MIC50 (Candida albicans [13]): 0.125 µg/mL (≈ 0.254 µM)
- Activity (Mus musculus [14]): Active
- Activity (Candida albicans [15]): Active
- MIC50 (Candida tropicalis): 0.25 µg/mL (≈ 0.508 µM)
- Activity (Mus musculus [16]): Active
- MIC50 (Pichia kudriavzevii): 0.25 µg/mL (≈ 0.508 µM)
- IC50 [17]: 190 nM
- Activity (Mus musculus [18]): Active
- MIC50 (Candida albicans [19]): 2 µg/mL (≈ 4.07 µM)
- Activity (Mus musculus [20]): Active
- Activity (Candida albicans [21]): Active
- Activity (Candida albicans [22]): 67.3%
- Activity (Candida albicans [23]): 19.4%
- MIC50 (Aspergillus fumigatus): 2 µg/mL (≈ 4.07 µM)
- Activity (Candida albicans [24]): 44.4%
- MIC50 (Cryptococcus neoformans): 0.5 µg/mL (≈ 1.02 µM)
- Activity (Candida albicans [25]): 34.3%
- Activity (Candida albicans [26]): Active
- Activity (Mus musculus [27]): Active

Structure (SMILES): C[C@H](C(=O)N(C)CC(O)(Cn1ccnc1)c1ccc(Cl)cc1Cl)c1cccc(C(=O)c2ccccc2)c1 (stereo partly drawn)
- Activity (Candida albicans [1]): Active
- Activity (Mus musculus [2]): Active
- Activity (Candida albicans [3]): Active
- Activity (Candida albicans [4]): 53.1%
- Activity (Candida albicans [5]): Active
- Activity (Candida albicans [6]): Active
- MIC50 (Candida albicans [7]): 0.5 µg/mL (≈ 0.932 µM)
- Activity [8]: 50.87%
- MIC50 (Candida albicans [9]): 1 µg/mL (≈ 1.86 µM)
- Activity (Candida albicans [10]): Active
- Activity [11]: 17 mmol/L
- Activity (Candida albicans [12]): Active
- MIC50 (Candida albicans [13]): 0.125 µg/mL (≈ 0.233 µM)
- Activity (Mus musculus [14]): Active
- Activity (Candida albicans [15]): Active
- MIC50 (Candida tropicalis): 0.25 µg/mL (≈ 0.466 µM)
- Activity (Mus musculus [16]): Active
- MIC50 (Pichia kudriavzevii): 0.125 µg/mL (≈ 0.233 µM)
- IC50 [17]: 160 nM
- Activity (Mus musculus [18]): Active
- MIC50 (Candida albicans [19]): 2 µg/mL (≈ 3.73 µM)
- Activity (Mus musculus [20]): Active
- Activity (Candida albicans [21]): Active
- Activity (Candida albicans [22]): 66.6%
- Activity (Candida albicans [23]): 28.1%
- MIC50 (Aspergillus fumigatus): 2 µg/mL (≈ 3.73 µM)
- Activity (Candida albicans [24]): 43.8%
- MIC50 (Cryptococcus neoformans): 0.25 µg/mL (≈ 0.466 µM)
- Activity (Candida albicans [25]): 26%
- Activity (Candida albicans [26]): Active
- Activity (Mus musculus [27]): Active
